Measurements from PubChem BioAssay (NCI).
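Interpolation was linear, between the two tested concentrations surrounding the appropriate level; five concentrations were tested over 48 hours in 96-well plates. The concentration for full growth arrest is given as TGI.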

Assays:
Experiment in all cases: NCI-60 cell line screen, 48 h
[1] = tested on: 786-0 renal
[2] = tested on: A498 renal
[3] = tested on: A549 NSCLC
[4] = tested on: ACHN renal
[5] = tested on: CAKI-1 renal
[6] = tested on: CCRF-CEM leukemia
[7] = tested on: COLO 205 colon
[8] = tested on: DLD-1 colon
[9] = tested on: DMS 114 small cell lung
[10] = tested on: DMS 273 small cell lung
[11] = tested on: EKVX NSCLC
[12] = tested on: HCC-2998 colon
[13] = tested on: HCT-116 colon
[14] = tested on: HCT-15 colon
[15] = tested on: HL-60(TB) leukemia
[16] = tested on: HOP-18 NSCLC
[17] = tested on: HOP-62 NSCLC
[18] = tested on: HOP-92 NSCLC
[19] = tested on: HT29 colon
[20] = tested on: IGROV1 ovarian
[21] = tested on: K-562 leukemia
[22] = tested on: KM12 colon
[23] = tested on: KM20L2 colon
[24] = tested on: LOX IMVI melanoma
[25] = tested on: LXFL 529 NSCLC
[26] = tested on: M14 melanoma
[27] = tested on: M19-MEL melanoma
[28] = tested on: MALME-3M melanoma
[29] = tested on: MOLT-4 leukemia
[30] = tested on: NCI-H226 lung
[31] = tested on: NCI-H23 lung
[32] = tested on: NCI-H460 lung
[33] = tested on: NCI-H522 lung
[34] = tested on: OVCAR-3 ovarian
[35] = tested on: OVCAR-4 ovarian
[36] = tested on: OVCAR-5 ovarian
[37] = tested on: OVCAR-8 ovarian
[38] = tested on: RPMI-8226 leukemia
[39] = tested on: RXF 393 renal
[40] = tested on: SF-268 CNS
[41] = tested on: SF-295 CNS
[42] = tested on: SF-539 CNS
[43] = tested on: SK-MEL-2 melanoma
[44] = tested on: SK-MEL-28 melanoma
[45] = tested on: SK-OV-3 ovarian
[46] = tested on: SN12C renal
[47] = tested on: SNB-19 CNS
[48] = tested on: SNB-75 CNS
[49] = tested on: SNB-78 CNS
[50] = tested on: SW-620 colon
[51] = tested on: TK-10 renal
[52] = tested on: U251 CNS
[53] = tested on: UACC-257 melanoma
[54] = tested on: UACC-62 melanoma
[55] = tested on: UO-31 renal
[56] = tested on: SK-MEL-5 melanoma
[57] = tested on: XF 498 CNS
[58] = tested on: RXF-631 renal
[59] = tested on: SR leukemia

## COc1cc([C@@H]2c3cc4c(cc3[C@@H](NC(=O)c3ccc(C#N)cc3)C3COC(=O)[C@@H]32)OCO4)cc(OC)c1O (stereo partly drawn)
[1]
  TGI: 16 µM
[2]
  TGI: 3.79 µM
[3]
  TGI: 1.64 µM
[4]
  TGI: 1.47 µM
[5]
  TGI: 13.2 µM
[6]
  TGI: > 100 µM
[7]
  TGI: 16.4 µM
[8]
  TGI: 12 µM
[9]
  TGI: 2.27 µM
[10]
  TGI: 10.3 µM
[11]
  TGI: 5.73 µM
[12]
  TGI: 4.18 µM
[13]
  TGI: 3.29 µM
[14]
  TGI: 15.1 µM
[15]
  TGI: 11.1 µM
[16]
  TGI: > 100 µM
[17]
  TGI: 0.673 µM
[18]
  TGI: 22.9 µM
[19]
  TGI: 4.23 µM
[20]
  TGI: 5.13 µM
[21]
  TGI: > 100 µM
[22]
  TGI: 3.2 µM
[23]
  TGI: 4.51 µM
[24]
  TGI: 2.34 µM
[25]
  TGI: > 100 µM
[26]
  TGI: 12.4 µM
[27]
  TGI: 15.6 µM
[28]
  TGI: 2.59 µM
[29]
  TGI: 12.4 µM
[30]
  TGI: 0.508 µM
[31]
  TGI: 0.837 µM
[32]
  TGI: 1.43 µM
[33]
  TGI: 2.39 µM
[34]
  TGI: 4.66 µM
[35]
  TGI: > 100 µM
[36]
  TGI: 8.53 µM
[37]
  TGI: 6.38 µM
[38]
  TGI: 11.7 µM
[39]
  TGI: 9.92 µM
[40]
  TGI: 16.9 µM
[41]
  TGI: 11.8 µM
[42]
  TGI: 1.66 µM
[43]
  TGI: 5.56 µM
[44]
  TGI: 16.8 µM
[45]
  TGI: 2.87 µM
[46]
  TGI: 1.51 µM
[47]
  TGI: 4.65 µM
[48]
  TGI: 5.49 µM
[49]
  TGI: 58.2 µM
[50]
  TGI: 10.7 µM
[51]
  TGI: 4.86 µM
[52]
  TGI: 1.26 µM
[53]
  TGI: 20.1 µM
[54]
  TGI: 2.19 µM
[55]
  TGI: 15.3 µM

## O=C1[C@@H]2C(c3c(Cl)cccc3Cl)=NO[C@@H]2C(=O)N1c1ccc(Cc2ccc(N3C(=O)[C@H]4C(c5c(Cl)cccc5Cl)=NO[C@H]4C3=O)cc2)cc1
[1]
  TGI: > 100 µM
[2]
  TGI: > 100 µM
[3]
  TGI: > 100 µM
[4]
  TGI: > 100 µM
[5]
  TGI: > 100 µM
[6]
  TGI: > 100 µM
[7]
  TGI: > 100 µM
[8]
  TGI: > 100 µM
[9]
  TGI: > 100 µM
[10]
  TGI: > 100 µM
[11]
  TGI: > 100 µM
[12]
  TGI: > 100 µM
[14]
  TGI: > 100 µM
[15]
  TGI: > 100 µM
[16]
  TGI: > 100 µM
[17]
  TGI: > 100 µM
[18]
  TGI: > 100 µM
[19]
  TGI: > 100 µM
[20]
  TGI: > 100 µM
[21]
  TGI: > 100 µM
[22]
  TGI: > 100 µM
[23]
  TGI: > 100 µM
[24]
  TGI: > 100 µM
[25]
  TGI: > 100 µM
[26]
  TGI: > 100 µM
[27]
  TGI: > 100 µM
[28]
  TGI: > 100 µM
[29]
  TGI: > 100 µM
[30]
  TGI: > 100 µM
[31]
  TGI: > 100 µM
[32]
  TGI: > 100 µM
[34]
  TGI: > 100 µM
[35]
  TGI: > 100 µM
[36]
  TGI: > 100 µM
[37]
  TGI: > 100 µM
[38]
  TGI: > 100 µM
[39]
  TGI: > 100 µM
[40]
  TGI: > 100 µM
[41]
  TGI: > 100 µM
[42]
  TGI: > 100 µM
[43]
  TGI: > 100 µM
[44]
  TGI: > 100 µM
[56]
  TGI: > 100 µM
[45]
  TGI: > 100 µM
[46]
  TGI: > 100 µM
[48]
  TGI: > 100 µM
[49]
  TGI: > 100 µM
[50]
  TGI: > 100 µM
[51]
  TGI: > 100 µM
[52]
  TGI: > 100 µM
[53]
  TGI: > 100 µM
[54]
  TGI: > 100 µM
[55]
  TGI: > 100 µM
[57]
  TGI: > 100 µM

## COC(=O)CC(=O)OSc1ccccc1
[2]
  TGI: 65 µM
[3]
  TGI: 77.3 µM
[4]
  TGI: 56.5 µM
[6]
  TGI: > 100 µM
[7]
  TGI: 38.2 µM
[8]
  TGI: 48 µM
[9]
  TGI: 25.6 µM
[10]
  TGI: 41 µM
[11]
  TGI: 89.2 µM
[12]
  TGI: 95 µM
[13]
  TGI: 26.9 µM
[17]
  TGI: 53.4 µM
[18]
  TGI: 67.9 µM
[20]
  TGI: 20.2 µM
[21]
  TGI: > 100 µM
[22]
  TGI: > 100 µM
[23]
  TGI: 42.2 µM
[24]
  TGI: 26.9 µM
[26]
  TGI: 38.7 µM
[28]
  TGI: > 100 µM
[29]
  TGI: > 100 µM
[30]
  TGI: 64 µM
[31]
  TGI: 82.9 µM
[32]
  TGI: > 100 µM
[33]
  TGI: 12.8 µM
[34]
  TGI: 36.4 µM
[35]
  TGI: > 100 µM
[36]
  TGI: > 100 µM
[38]
  TGI: > 100 µM
[39]
  TGI: 25.3 µM
[58]
  TGI: 25 µM
[41]
  TGI: 96.3 µM
[42]
  TGI: 25.5 µM
[43]
  TGI: 97.5 µM
[56]
  TGI: 87.9 µM
[45]
  TGI: 46 µM
[46]
  TGI: 27.1 µM
[47]
  TGI: > 100 µM
[59]
  TGI: 42 µM
[50]
  TGI: 38.4 µM
[51]
  TGI: > 100 µM
[52]
  TGI: 24.1 µM
[53]
  TGI: 87.7 µM
[54]
  TGI: 29.5 µM
[55]
  TGI: 24.7 µM

## COC(=O)C1C(C(=O)OC)C2C(=O)C3C(C(=O)OC)C(C(=O)OC)C3C(=O)C12 (stereo not drawn)
[1]
  TGI: > 100 µM
[2]
  TGI: > 100 µM
[3]
  TGI: > 100 µM
[4]
  TGI: > 100 µM
[5]
  TGI: > 100 µM
[6]
  TGI: > 100 µM
[7]
  TGI: > 100 µM
[10]
  TGI: > 100 µM
[11]
  TGI: > 100 µM
[12]
  TGI: > 100 µM
[13]
  TGI: > 100 µM
[15]
  TGI: > 100 µM
[16]
  TGI: > 100 µM
[17]
  TGI: > 100 µM
[18]
  TGI: > 100 µM
[19]
  TGI: > 100 µM
[20]
  TGI: > 100 µM
[21]
  TGI: > 100 µM
[22]
  TGI: > 100 µM
[23]
  TGI: > 100 µM
[24]
  TGI: > 100 µM
[25]
  TGI: > 100 µM
[27]
  TGI: > 100 µM
[28]
  TGI: > 100 µM
[29]
  TGI: > 100 µM
[30]
  TGI: > 100 µM
[31]
  TGI: > 100 µM
[32]
  TGI: > 100 µM
[33]
  TGI: > 100 µM
[35]
  TGI: > 100 µM
[36]
  TGI: > 100 µM
[37]
  TGI: > 100 µM
[39]
  TGI: > 100 µM
[58]
  TGI: > 100 µM
[40]
  TGI: > 100 µM
[41]
  TGI: > 100 µM
[42]
  TGI: > 100 µM
[43]
  TGI: > 100 µM
[44]
  TGI: > 100 µM
[45]
  TGI: > 100 µM
[46]
  TGI: > 100 µM
[47]
  TGI: > 100 µM
[49]
  TGI: > 100 µM
[59]
  TGI: > 100 µM
[50]
  TGI: > 100 µM
[51]
  TGI: > 100 µM
[52]
  TGI: > 100 µM
[53]
  TGI: > 100 µM
[57]
  TGI: > 100 µM
